{
  "source": "paper PMC4537050",
  "about": "“A long pentraxin-3-derived pentapeptide for the therapy of FGF8b-driven steroid hormone-regulated cancers” (Oncotarget, 2015)",
  "key": {"HUVEC spheroids": {"system": "HUVEC spheroids", "assay": "Endothelial cell sprouting assay (HUVEC spheroids in fibrin gel)", "type": "cell-based, human", "conditions": "60 μM peptide, 24 h", "method": "HUVEC spheroid aggregates were prepared in 20% methylcellulose medium, embedded in fibrin gel, and stimulated with FGF8b or VEGF-A (both at 30 ng/ml) plus 5% FBS in the absence or presence of 60 μM ARPCA or ARPVA. Formation of radially growing cell sprouts was observed during the next 24 h, photographed at 200x magnification using an Axiovert 200M microscope (Carl Zeiss, Milan, Italy, EU) and counted."}, "S115 tumor grafts": {"system": "S115 tumor grafts", "assay": "Murine s.c. alginate implant assay, S115 cells", "type": "in vivo, athymic Nu/Nu male mice", "conditions": "i.p. 100 mg/kg every other day, plugs harvested day 14, compared to ARPVA-treated animals", "method": "Eightweek-old athymic Nu/Nu or C57BL/6 male mice were injected s.c. with 450 μl of 3% (w/v) sodium alginate solution (alginic acid dissolved in LPS-free PBS) containing 5×10^6 S115 or 8×10^6 TRAMP-C2 cells, respectively. Mice were treated i.p. with ARPCA or ARPVA (100 mg/kg) on day 7, 9, 11 and 13 after implant. On day 14, alginate gels were harvested, weighted, embedded in OCT-compound and immediately frozen to be processed for histological analysis. For immunofluorescence stainings, sections (5 μm thick) were obtained with a cryostat microtome, air dried and fixed with acetone (for 5 min at 4°C). After blocking with 1% BSA (Bovine Serum Albumin) in PBS for 10 minutes, sections were incubated with primary antibodies, rabbit anti-FGFR1 (Santa Cruz Biotechnology), rabbit anti-phospho FGFR1 (Santa Cruz Biotechnology), Ki67 (Dako, Milano, Italy, EU) or CD31 (BD Biosciences Pharmingen, San Diego, CA, USA). After washing with PBS containing 0.05% Tween 20, sections were incubated with the appropriate Alexa Fluor 488 or Alexa Fluor 594-conjugated secondary antibody (Invitrogen). After mounting in a drop of anti-bleaching mounting medium containing DAPI (Vectashield, Vector Laboratories, Burlingame, CA, USA), sections were examined under a Zeiss Fluorescence Axiovert 200M microscope (Carl Zeiss)."}, "FGF9": {"molecular_target": "FGF9 (Homo sapiens, UniProt P31371)", "assay": "SPR analysis of FGF/ARPCA interaction, FGF9", "type": "binding", "conditions": "immobilized FGF9"}, "S115 tumors": {"system": "S115 tumors", "assay": "In vivo tumor therapy study, S115 tumors", "parameters": "species or system athymic Nu/Nu male mice", "conditions": "s.c. S115 cells, i.p. 100 mg/kg every other day starting at day 8, followed for the next 32 days", "method": "(§1) Eight week old C57BL/6 male mice were injected s.c. with 8×10^6 TRAMP-C2 cells, and eight week old athymic Nu/Nu male mice were injected s.c. with 5×10^6 S115 cells. All injections were performed in 200 μl total volume of PBS into the dorsolateral flank. When tumors were palpable treatment was performed every other day by i.p. injection of ARPCA, ARPVA (both at 100 mg/kg) or vehicle (PBS) in 100 μl final volume. Tumors were measured in two dimensions and tumor volume was calculated according to the formula V=(D × d^2)/2, where D and d are the major and minor perpendicular tumor diameters, respectively. At the end of the experimental procedure tumors were harvested, weighted and photographed."}, "TRAMP-C2 tumor grafts": {"system": "TRAMP-C2 tumor grafts", "assay": "In vivo tumor therapy study, TRAMP-C2 tumors", "parameters": "species or system C57BL/6 male mice", "conditions": "s.c. TRAMP-C2 cells, i.p. 100 mg/kg every other day", "method": "as §1"}, "[1]": {"system": "FGFR1 phosphorylation in HUVECs", "assay": "FGFR1 phosphorylation in FGF8b-stimulated HUVECs (immunofluorescence)", "type": "cell-based, human", "conditions": "30 ng/ml FGF8b, 60 μM peptide", "method": "HUVECs were seeded in Ibidi® μ-Slide 8 wells (Ibidi, Martinsried, Germany, EU) at a density of 30000 cells/cm^2, starved in 2.5% FBS for 24 h and stimulated for 20 minutes with 30 ng/ml of FGF8b in the absence or presence of ARPCA or ARPVA. Following stimulation, cells were washed twice in PBS, fixed in cold acetone for 5 minutes and permeabilized with 0.2% Triton-X100 in PBS for 2 minutes at room temperature (RT). After washing in PBS, cells were blocked for 10 minutes at RT in 1% BSA and then incubated with rabbit anti-pFGFR1 or rabbit anti-FGFR1 antibodies (Santa Cruz Biotechnology) for 1 h at RT. After washing in PBS, cells were incubated with AlexaFluor 594-conjugated anti-rabbit antibody (Invitrogen) and DAPI for 30 minutes at RT. Finally, cells were examined under a Zeiss Fluorescence Axiovert 200M microscope (Carl Zeiss)."}, "FGF3": {"molecular_target": "T1, FGF3 (Homo sapiens, UniProt P11487)", "T1 sequence (P11487 18-239)": "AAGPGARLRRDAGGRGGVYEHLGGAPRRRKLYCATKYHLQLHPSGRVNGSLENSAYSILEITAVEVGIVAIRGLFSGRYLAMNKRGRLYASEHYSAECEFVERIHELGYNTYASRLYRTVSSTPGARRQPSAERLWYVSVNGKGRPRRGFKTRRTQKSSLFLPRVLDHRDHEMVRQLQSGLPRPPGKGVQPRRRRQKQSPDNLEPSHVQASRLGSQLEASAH", "assay": "SPR analysis of FGF/ARPCA interaction, FGF3", "type": "binding", "conditions": "immobilized FGF3"}, "FGF4": {"molecular_target": "T2, FGF4 (Homo sapiens, UniProt P08620)", "T2 sequence (P08620 31-206)": "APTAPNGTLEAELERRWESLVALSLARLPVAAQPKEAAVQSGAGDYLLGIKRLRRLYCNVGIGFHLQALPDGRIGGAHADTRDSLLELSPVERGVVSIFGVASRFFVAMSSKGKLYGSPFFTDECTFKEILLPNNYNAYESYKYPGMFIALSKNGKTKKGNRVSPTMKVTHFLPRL", "assay": "SPR analysis of FGF/ARPCA interaction, FGF4", "type": "binding", "conditions": "immobilized FGF4"}},
  "data": [
    {"substance": "Ac-ARPCA-NH2 [ARPCA, Ac-ARPCA-NH2]", "values": [
      {"measurement": "sprouting activity exerted by FGF8b on HUVEC spheroids", "setting": "HUVEC spheroids; 30 ng/ml FGF8b", "result": "specifically prevents the pro-angiogenic/sprouting activity"},
      {"measurement": "effect on the angiogenic potential of VEGF-A on HUVEC spheroids", "setting": "HUVEC spheroids; 30 ng/ml VEGF-A", "result": "no effect"},
      {"measurement": "CD31+ neovascularization in S115 tumor grafts", "setting": "S115 tumor grafts", "result": "efficiently inhibited"},
      {"measurement": "FGFR1 phosphorylation in S115 tumor grafts", "setting": "S115 tumor grafts", "result": "efficiently inhibited"},
      {"measurement": "Ki67+ proliferation index in S115 tumor grafts", "setting": "S115 tumor grafts", "result": "efficiently inhibited"},
      {"measurement": "Kd, FGF9", "setting": "FGF9", "result": "n.b."},
      {"measurement": "S115 tumor growth, long-term experiment", "setting": "S115 tumors", "result": "suppresses S115 tumor growth"},
      {"measurement": "growth of TRAMP-C2 tumor grafts, long-term assay", "setting": "TRAMP-C2 tumor grafts", "result": "inhibited the growth of TRAMP-C2 tumor grafts"},
      {"measurement": "FGFR1 phosphorylation triggered by FGF8b in HUVECs", "setting": "[1]", "result": "efficiently impairs FGFR1 phosphorylation"},
      {"measurement": "Kd, FGF3", "setting": "FGF3", "result": "n.b."},
      {"measurement": "Kd, FGF4", "setting": "FGF4", "result": "n.b."}
    ]}
  ]
}
